This assay deals with rat platelet aggregation. In words: Inhibitory action on rat platelet aggregation in vitro (ADP-induced, platelet-rich plasma). The assay is classed as cell-based. The following applies: SD rat PRP, ADP 2 μmol/L; relative activity from IC50, activity of IC50 value of PGE1 = 100. How it is done: Experimental Example 2: Evaluation of Inhibitory Action on Rat Platelet Aggregation In Vitro (1) Preparation of Rat Platelet-Rich Plasma In the same manner as in the above-mentioned Experimental Example 1(1), blood samples were collected from the abdominal artery of 8- to 9-week-old male SD rats. PRP was diluted with PPP and the number of platelet was adjusted to 63.2×10^4/μL. (2) Measurement of Platelet Aggregation Ability In the same manner as in the above-mentioned Experimental Example 1(2) except that the final concentration of ADP was 2 μmol/L, the compound of the present invention, prostaglandin E1 (PGE1:positive control substance) or vehicle control was added as a test substance, and the maximum response of aggregation was measured. (3) Evaluation of Platelet Aggregation Inhibitory Action In the same manner as in the above-mentioned Experimental Example 1(3), IC50 values were determined from the aggregation inhibition ratio of the test substance, and the relative activity (%) of each test substance was calculated by defining the activity of IC50 value of PGE1 as 100.
For `CCC#CC[C@H](C)C(O)/C=C/[C@H]1[C@H](O)CC(=O)[C@@H]1CCCCCCC(=O)OC` (stereo partly drawn) [compound (1)-3, methyl ((1R,2R,3R)-3-hydroxy-2-((1E,3RS,4S)-3-hydroxy-4-methylnon-1-en-6-yn-1-yl)-5-oxocyclopentyl)heptanoate], the “Relative activity (%)” value was determined as 2175%.

`CCC#CC[C@H](C)C(O)/C=C/[C@H]1[C@H](O)CC(=O)[C@@H]1CCSCCCC(=O)OC` (mixture of isomers) [compound (1)-1, methyl 4-((2-((1R,2R,3R)-3-hydroxy-2-((1E,3RS,4S)-3-hydroxy-4-methylnon-1-en-6-yn-1-yl)-5-oxocyclopentyl)ethyl)thio)butanoate]: the “Relative activity (%)” value came out at 169%.

Regarding `CCCCC[C@H](O)/C=C/[C@H]1[C@H](O)CC(=O)[C@@H]1CCCCCCC(=O)O` [PGE1, prostaglandin E1, reference compound], the “Relative activity (%)” value amounted to 100%.

Turning to `CCC#CC[C@H](C)[C@H](O)/C=C/[C@H]1[C@H](O)CC(=O)[C@@H]1CCCCCC(F)(F)C(=O)O` [compound (1)-8, 2,2-difluoro-7-((1R,2R,3R)-3-hydroxy-2-((1E,3S,4S)-3-hydroxy-4-methylnon-1-en-6-yn-1-yl)-5-oxocyclopentyl)heptanoic acid], the “Relative activity (%)” value is reported as 817%.

Values taken from US10494338B2, “Prostaglandin derivative” (AGC INC., priority 2016, dated 2019).
